Our source for the EC50, IC50 and AC50 values is ChEMBL document CHEMBL1201862, “PubChem BioAssay data set” (2004).

Experiment [1] addresses T1, Heat shock factor protein 1 (Mus musculus, UniProt P38532).
T1 sequence (P38532 whole entry): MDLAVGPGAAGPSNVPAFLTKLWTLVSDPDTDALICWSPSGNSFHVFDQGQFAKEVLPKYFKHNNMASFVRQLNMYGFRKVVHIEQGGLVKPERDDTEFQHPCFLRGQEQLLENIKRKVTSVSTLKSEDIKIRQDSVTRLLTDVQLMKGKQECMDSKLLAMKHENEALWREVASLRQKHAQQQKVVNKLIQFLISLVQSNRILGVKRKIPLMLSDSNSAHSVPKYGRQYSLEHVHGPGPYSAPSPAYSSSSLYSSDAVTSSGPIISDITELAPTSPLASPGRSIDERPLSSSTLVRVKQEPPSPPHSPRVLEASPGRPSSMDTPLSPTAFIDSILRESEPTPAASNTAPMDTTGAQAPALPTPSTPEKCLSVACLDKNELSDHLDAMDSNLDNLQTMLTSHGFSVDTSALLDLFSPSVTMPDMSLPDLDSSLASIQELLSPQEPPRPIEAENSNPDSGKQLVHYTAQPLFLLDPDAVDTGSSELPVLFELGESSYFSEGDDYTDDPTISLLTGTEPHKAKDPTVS
As to the kind of experiment: decrease of HSF1-responsive luciferase luminescence – cell-based, NIH3T3, dose retest, confirmation (AID 2382).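 Note: NIH3T3 fibroblasts with HSF1-driven luciferase reporter stressed by proteasome inhibitor MG132; luminescence from HSF1-driven luciferase expression after 8 hours of MG132 stress.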 Type of experiment: functional.

Experiment [2] relates to Jurkat. The experiment in a line: blockers of NF-kB activation in T cells – Jurkat, luciferase reporter, luminescence, B- and T-cell, dose response (AID 489004).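 Note: NF-kB luciferase reporter Jurkat cells stimulated with PMA plus ionomycin.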 The note with it: Homo sapiens. The class given is functional, cell-based. (In general: Reporter assays use an easily measured gene product as a stand-in for the process of interest.)
Experiment [3] is described as follows: HEK-293T viability loss, compound-treated – cell-based, uHTS hits, cytotoxicity control for B/T-cell NF-kB inhibitor project, dose response (AID 489019).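 Note: IC50 reflects cytotoxicity as loss of cell viability.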 Type of experiment: functional.
Experiment [4] addresses Luciferin 4-monooxygenase (Photuris pensylvanica, UniProt Q27757). As to the kind of experiment: inhibition of Cell Titer Glo luciferase signal – biochemical, luminescence, cherry-picks, counter-screen for HSF-1 reporter inhibitor project, dose response (AID 588847). On the technique in general: Cellular ATP, detected with luciferase, serves as a proxy for viable cell number.

Experiment [5] can be described thus: reduction of Shn3 3'UTR-driven luciferase in osteoblasts – cell-based, Clone20 osteoblasts, firefly luciferase, cherry-picked, dose response (AID 624132).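 Note: firefly luciferase luminescence from reporter carrying the Shn3 3'UTR in osteoblasts.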 The class given is functional.
Experiment [6] in a line: loss of viability in HepG2 cells – cell-based, CellTiter-Glo, cherry-picked, cytotoxicity control for Shn3 inhibitor project, dose response (AID 624134). The class given is functional.
The nature of experiment [7]: non-specific 3'UTR reporter inhibition in Clone20-Shn3RL – cell-based, Renilla luciferase, cherry-picked, counter-screen for Shn3 inhibitor project, dose response (AID 624133). The class given is functional. In general terms: A counterscreen serves to expose hits that act by an unwanted route or on another target.
Experiment [8] concerns the target T2, Protein skinhead-1 (Caenorhabditis elegans, UniProt P34707).
T2 sequence (P34707 whole entry): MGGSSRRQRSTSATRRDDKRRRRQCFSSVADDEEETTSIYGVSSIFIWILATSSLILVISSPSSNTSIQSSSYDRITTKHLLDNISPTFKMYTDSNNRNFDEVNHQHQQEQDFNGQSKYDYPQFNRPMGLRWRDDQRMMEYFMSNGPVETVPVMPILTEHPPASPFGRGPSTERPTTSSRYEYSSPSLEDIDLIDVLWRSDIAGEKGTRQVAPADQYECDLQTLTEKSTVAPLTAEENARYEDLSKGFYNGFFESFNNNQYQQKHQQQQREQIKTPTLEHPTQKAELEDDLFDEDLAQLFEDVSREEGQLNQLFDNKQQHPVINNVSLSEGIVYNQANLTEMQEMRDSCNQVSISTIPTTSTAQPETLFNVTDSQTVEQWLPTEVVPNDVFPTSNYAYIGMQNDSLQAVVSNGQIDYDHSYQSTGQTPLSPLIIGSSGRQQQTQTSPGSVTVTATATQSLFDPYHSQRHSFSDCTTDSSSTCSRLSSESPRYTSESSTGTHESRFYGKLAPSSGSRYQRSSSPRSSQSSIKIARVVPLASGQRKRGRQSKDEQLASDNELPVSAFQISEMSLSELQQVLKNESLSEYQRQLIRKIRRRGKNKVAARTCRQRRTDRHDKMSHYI
Type of experiment: functional.

Experiment [9] addresses Paired box protein Pax-8 (Homo sapiens, UniProt Q06710). The experiment in a line: PAX8 transcriptional activity inhibition in RMG-I – RMG-I cells, luciferase, cherry-pick, dose response (AID 687027).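 Note: luciferase reporter driven by Pax8 target thyroperoxidase promoter measured by SteadyGlo luminescence.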 Type of experiment: functional, cell-based.
Experiment [10] can be described thus: toxicity toward HepG2 liver cells – cell-based, plate reader, cherry-pick, antagonist series, cytotoxicity control, dose response (AID 743416). Type of experiment: functional.
A short description of experiment [11]: blockers of bursicon-stimulated LGR2 cAMP reporter – cell-based, HEK293, CRE-luciferase reporter, cherry pick, set 2, dose response (AID 743343).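 Note: transfected cells were stimulated with diluted bursicon conditioned medium after compound addition.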 The class given is functional.
The nature of experiment [12]: blockade of melanocortin 4 receptor signaling – cell-based, plate reader, cherry pick, counter-screen for LGR2 antagonist project, dose response (AID 743444).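 Note: transfected HEK 293 cells stimulated with alpha-MSH peptide; potency of inhibitors of the alpha-MSH evoked signal.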 The class given is functional.
Experiment [13] is described as follows: viability loss in HEK293 cells – cell-based, plate reader, cherry-picked samples, cytotoxicity control, dose response (AID 743446). The class given is functional.
Experiment [14] deals with T3, Microphthalmia-associated transcription factor (Homo sapiens, UniProt O75030).
T3 sequence (O75030 whole entry): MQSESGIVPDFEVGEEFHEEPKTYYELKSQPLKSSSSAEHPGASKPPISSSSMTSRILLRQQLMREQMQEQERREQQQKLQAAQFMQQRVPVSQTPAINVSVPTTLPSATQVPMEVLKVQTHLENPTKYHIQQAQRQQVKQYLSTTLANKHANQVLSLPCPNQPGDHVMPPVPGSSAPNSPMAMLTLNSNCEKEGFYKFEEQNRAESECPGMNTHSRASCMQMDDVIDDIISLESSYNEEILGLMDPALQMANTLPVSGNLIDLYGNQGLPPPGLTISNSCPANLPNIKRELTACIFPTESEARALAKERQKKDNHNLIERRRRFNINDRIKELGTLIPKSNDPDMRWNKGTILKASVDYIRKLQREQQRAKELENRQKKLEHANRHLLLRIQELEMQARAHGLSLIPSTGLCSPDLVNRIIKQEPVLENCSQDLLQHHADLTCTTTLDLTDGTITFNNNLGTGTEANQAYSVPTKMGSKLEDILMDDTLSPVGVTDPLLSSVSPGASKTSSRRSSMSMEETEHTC
As to the kind of experiment: reducers of TRPM1 reporter luminescence, concentration series – cell-based, SK-MEL-5, cherry-picked, set 3, MITF inhibitor project, dose response (AID 493073).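 Note: SK-MEL-5 melanoma cells with luciferase driven by the MITF target TRPM1 promoter.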 Type of experiment: functional.

Experiment [15] has as its target Apoptotic protease-activating factor 1 (Homo sapiens, UniProt O14727). Type of experiment: functional.
Experiment [16] concerns the target T4, Sentrin-specific protease 8 (Homo sapiens, UniProt Q96LD8).
T4 sequence (Q96LD8 whole entry): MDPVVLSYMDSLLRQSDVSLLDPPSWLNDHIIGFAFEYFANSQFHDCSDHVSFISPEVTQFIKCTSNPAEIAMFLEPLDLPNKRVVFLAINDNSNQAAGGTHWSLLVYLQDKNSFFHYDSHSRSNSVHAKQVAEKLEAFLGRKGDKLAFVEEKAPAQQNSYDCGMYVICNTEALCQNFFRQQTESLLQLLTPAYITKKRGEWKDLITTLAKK
Type of experiment: functional.

Experiment [17] has as its target T4, Sentrin-specific protease 8. The class given is functional. This is another data set of the same source.
Experiment [18] deals with T5, Caspase-6 (Homo sapiens, UniProt P55212).
T5 sequence (P55212 whole entry): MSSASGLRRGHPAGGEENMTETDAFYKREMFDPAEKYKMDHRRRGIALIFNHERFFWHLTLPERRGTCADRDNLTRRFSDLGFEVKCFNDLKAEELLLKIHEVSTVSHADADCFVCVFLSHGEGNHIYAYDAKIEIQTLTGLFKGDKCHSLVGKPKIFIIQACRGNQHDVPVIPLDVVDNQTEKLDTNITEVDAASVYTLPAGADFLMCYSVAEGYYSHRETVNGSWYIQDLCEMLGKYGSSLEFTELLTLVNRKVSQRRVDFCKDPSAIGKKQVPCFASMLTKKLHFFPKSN
As to the kind of experiment: inhibition of CASP6 peptide cleavage – biochemical, VEID-R110 fluorescence, cherry-pick, dose response (AID 720632).

The target of experiment [19] is Caspase-9 (Homo sapiens, UniProt P55211). As to the kind of experiment: inhibitors of purified CASP9 protease – biochemical, fluorescence, plate reader, cherry-picked samples, selectivity assay for caspase-6 inhibitor project, dose response (AID 743293).
For experiment [20], the target named is Caspase-7 (Homo sapiens, UniProt P55210). As to the kind of experiment: caspase-7 enzyme inhibition, selectivity check – biochemical, DEVD-R110 fluorescence, cherry-pick, selectivity assay for caspase-6 inhibitor project, dose response (AID 743295). Type of experiment: functional.
The target of experiment [21] is Caspase-8 (Homo sapiens, UniProt Q14790). The experiment in a line: inhibitors of purified CASP8 protease – biochemical, Z-IETD-R110 fluorescence, cherry-picked samples, selectivity assay for caspase-6 inhibitor project, dose response (AID 743294).
Experiment [22] has as its target Botulinum neurotoxin type A (Clostridium botulinum (strain Hall / ATCC 3502 / NCTC 13319 / Type A), UniProt P0DPI1). As to the kind of experiment: High-throughput multiplex microsphere dose response for inhibitors of toxin protease, specifically Botulinum neurotoxin light chain A protease, compounds from Cherry Pick 01. Type of experiment: functional. The note with it: read-out: EC50_MICROM.

Calls of active or inactive are those of the source. Where only a bound is given, the exact number is not on record here.

Sequence of Caspase-7 (P55210 24-198 limits assumed): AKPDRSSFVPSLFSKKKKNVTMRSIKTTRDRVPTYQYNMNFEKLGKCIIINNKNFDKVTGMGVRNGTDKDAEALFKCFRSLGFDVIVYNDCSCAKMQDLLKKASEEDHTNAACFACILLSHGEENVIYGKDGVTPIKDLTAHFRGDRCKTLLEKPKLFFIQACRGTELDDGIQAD
Sequence of Caspase-7 (P55210 207-303 limits assumed): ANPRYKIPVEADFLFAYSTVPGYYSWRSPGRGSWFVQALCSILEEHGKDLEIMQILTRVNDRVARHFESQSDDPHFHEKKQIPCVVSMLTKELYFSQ
Sequence of Botulinum neurotoxin type A (P0DPI1 2-448 limits assumed): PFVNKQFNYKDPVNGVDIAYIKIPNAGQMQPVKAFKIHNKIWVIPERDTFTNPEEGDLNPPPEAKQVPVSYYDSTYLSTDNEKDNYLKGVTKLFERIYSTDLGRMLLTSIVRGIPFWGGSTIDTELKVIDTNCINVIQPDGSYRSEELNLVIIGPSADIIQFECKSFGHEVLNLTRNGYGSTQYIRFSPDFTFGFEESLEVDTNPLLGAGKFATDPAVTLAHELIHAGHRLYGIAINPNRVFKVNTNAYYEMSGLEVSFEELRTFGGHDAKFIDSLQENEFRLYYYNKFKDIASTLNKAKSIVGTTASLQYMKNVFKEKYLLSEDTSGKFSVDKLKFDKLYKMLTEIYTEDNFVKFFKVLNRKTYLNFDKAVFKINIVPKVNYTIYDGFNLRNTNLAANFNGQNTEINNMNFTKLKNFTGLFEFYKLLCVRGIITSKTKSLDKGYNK
Sequence of Caspase-8 (Q14790 217-374 limits assumed): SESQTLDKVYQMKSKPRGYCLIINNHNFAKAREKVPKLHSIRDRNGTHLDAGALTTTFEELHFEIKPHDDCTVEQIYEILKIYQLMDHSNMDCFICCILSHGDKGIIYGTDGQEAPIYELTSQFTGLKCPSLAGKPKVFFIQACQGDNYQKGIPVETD
Sequence of Caspase-8 (Q14790 385-479 limits assumed): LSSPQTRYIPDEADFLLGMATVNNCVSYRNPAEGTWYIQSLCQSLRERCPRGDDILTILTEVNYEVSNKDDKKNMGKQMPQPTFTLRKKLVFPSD
Sequence of Apoptotic protease-activating factor 1 (O14727 whole entry): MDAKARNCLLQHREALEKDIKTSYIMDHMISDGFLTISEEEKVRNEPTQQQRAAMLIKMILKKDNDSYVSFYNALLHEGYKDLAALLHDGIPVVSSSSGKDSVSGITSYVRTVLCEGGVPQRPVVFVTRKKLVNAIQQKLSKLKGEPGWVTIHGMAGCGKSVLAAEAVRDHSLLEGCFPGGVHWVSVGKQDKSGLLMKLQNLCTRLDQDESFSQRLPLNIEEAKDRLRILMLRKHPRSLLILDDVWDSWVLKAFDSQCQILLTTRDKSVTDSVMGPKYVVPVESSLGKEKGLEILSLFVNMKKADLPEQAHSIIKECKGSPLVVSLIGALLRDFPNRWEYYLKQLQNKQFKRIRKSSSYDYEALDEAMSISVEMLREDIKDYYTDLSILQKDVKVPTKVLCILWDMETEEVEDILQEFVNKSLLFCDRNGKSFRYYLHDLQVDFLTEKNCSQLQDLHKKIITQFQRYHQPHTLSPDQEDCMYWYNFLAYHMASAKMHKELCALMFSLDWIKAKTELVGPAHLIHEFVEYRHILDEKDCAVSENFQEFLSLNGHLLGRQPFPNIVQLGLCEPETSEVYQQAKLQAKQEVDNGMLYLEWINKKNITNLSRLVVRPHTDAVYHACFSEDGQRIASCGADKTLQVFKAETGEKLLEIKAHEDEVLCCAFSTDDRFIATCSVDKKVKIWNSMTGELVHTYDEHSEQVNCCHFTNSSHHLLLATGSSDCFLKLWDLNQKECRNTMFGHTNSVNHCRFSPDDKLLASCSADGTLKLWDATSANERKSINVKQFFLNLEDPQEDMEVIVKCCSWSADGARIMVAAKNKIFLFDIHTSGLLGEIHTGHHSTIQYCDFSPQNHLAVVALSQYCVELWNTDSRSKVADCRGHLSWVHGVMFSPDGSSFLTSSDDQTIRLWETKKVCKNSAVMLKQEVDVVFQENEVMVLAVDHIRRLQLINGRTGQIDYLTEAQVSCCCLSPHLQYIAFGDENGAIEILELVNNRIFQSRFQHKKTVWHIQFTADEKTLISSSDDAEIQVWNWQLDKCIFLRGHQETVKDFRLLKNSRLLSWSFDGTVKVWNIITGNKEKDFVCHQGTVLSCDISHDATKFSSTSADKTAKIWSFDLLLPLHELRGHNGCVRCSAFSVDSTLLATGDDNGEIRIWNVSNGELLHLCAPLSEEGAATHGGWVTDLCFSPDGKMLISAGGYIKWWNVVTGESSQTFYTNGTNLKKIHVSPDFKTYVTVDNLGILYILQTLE
Sequence of Paired box protein Pax-8 (Q06710 whole entry): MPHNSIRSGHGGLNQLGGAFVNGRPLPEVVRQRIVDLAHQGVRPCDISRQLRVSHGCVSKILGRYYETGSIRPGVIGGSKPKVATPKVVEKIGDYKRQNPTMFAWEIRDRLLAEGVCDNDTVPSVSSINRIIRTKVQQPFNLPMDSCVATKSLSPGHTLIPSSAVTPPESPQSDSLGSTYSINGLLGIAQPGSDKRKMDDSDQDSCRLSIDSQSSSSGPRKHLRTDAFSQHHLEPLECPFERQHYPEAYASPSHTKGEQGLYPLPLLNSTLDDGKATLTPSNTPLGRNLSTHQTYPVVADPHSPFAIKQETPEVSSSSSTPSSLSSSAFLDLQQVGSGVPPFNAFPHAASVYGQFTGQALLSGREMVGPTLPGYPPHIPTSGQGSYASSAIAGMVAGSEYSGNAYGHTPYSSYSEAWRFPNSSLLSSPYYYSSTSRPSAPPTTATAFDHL
Sequence of Luciferin 4-monooxygenase (Q27757 whole entry): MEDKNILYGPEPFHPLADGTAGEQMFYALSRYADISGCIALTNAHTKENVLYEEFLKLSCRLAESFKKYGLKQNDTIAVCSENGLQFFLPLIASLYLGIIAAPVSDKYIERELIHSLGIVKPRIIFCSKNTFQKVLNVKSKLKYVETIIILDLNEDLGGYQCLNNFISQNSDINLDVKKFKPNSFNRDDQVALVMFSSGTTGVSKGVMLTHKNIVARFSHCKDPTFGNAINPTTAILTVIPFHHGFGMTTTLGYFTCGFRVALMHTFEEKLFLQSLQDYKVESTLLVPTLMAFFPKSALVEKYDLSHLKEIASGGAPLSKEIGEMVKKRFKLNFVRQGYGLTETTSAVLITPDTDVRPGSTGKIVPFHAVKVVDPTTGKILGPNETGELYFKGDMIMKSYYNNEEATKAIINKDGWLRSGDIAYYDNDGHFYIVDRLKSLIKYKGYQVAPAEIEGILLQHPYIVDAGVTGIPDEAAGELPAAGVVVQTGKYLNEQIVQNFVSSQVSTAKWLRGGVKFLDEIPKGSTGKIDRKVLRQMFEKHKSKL
Sequence of Caspase-9 (P55211 1-315 limits assumed): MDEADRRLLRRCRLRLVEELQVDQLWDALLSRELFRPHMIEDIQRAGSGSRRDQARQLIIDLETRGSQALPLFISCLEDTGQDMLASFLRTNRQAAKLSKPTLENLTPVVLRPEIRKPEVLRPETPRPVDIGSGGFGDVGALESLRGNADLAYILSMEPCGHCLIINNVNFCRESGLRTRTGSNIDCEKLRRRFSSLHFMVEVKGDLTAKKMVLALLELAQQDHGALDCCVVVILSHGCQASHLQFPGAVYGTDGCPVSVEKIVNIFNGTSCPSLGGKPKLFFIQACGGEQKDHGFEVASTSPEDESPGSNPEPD
Sequence of Caspase-9 (P55211 331-416 limits assumed): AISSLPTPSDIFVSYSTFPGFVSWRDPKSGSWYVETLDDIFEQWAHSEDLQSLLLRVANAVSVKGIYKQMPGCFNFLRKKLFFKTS

One may read the IC50 as the concentration at which inhibition is half-maximal. What is called AC50 is the midpoint of the concentration-response curve, whichever way the signal moves. In the case of `CN(C(=O)OC(C)(C)C)c1ccc(-c2nc3ccccc3s2)cc1`, in experiment [1], the EC50 is < 0.16 µM (active). Moreover, the IC50 in experiment [2] was < 0.16 µM (active); in experiment [3], > 80 µM (inactive); in experiment [8], > 100 µM (inactive). Besides, the AC50 in [4] is 1.42 µM (active); in experiment [5], < 0.26 µM (active); in experiment [6] it was > 70 µM (inactive); in experiment [7], 7.35 µM (active); in experiment [9], 0.379 µM (active); in experiment [10], > 52 µM (inactive). Further, the AC50 in experiment [11] is < 0.068 µM (active); in experiment [12], < 0.068 µM (active); in experiment [13] it was 46.5 µM (active).
Consider `Oc1cc(NCCN2CCOCC2)cc2cccnc12`, for which the AC50 was 25.9 µM (active) in experiment [14]; 3.39 µM (active) in experiment [18]; 15.9 µM (active) in experiment [19]; 3.53 µM (active) in experiment [20]; 17.6 µM (active) in experiment [21]. Besides, the concentration for half-maximal inhibition (IC50) in [15] was 8.53 µM (active); in [16], 4.63 µM (active); in experiment [17], 2.68 µM (active).
In the case of `CSc1nnc2c(n1)c(C)nn2-c1cccc(C)c1`, in [22], the EC50 is 6.4 µM (active).
